Experimental findings from EP4603105A1, “PHARMACEUTICAL COMPOSITION CONTAINING CYCLIC COMPOUND HAVING SELECTIVE KRAS INHIBITORY EFFECT AGAINST HRAS AND NRAS” (CHUGAI SEIYAKU KABUSHIKI KAISHA, priority 2022, dated 2024) are described below.

As usually defined, the IC50 is the concentration at which inhibition is half-maximal. Low values mean greater potency in that assay, high ones weaker potency in that assay. A word on the Kd: it is the equilibrium constant for the complex coming apart. Read a low Kd as a tighter complex.

Test [1] relates to human lung cancer strain NCI-H441. It counts as cell-based. The gist of the method: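 Step one: dispense the test compound in serial DMSO dilutions. Step three: add the reagent and measure […].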
The target in another test is HRAS wild-type protein (Homo sapiens, UniProt P01112). Nature of the test: Binding to HRAS by surface plasmon resonance (SPR), KD and KD ratio to KRAS. As to conditions: ratio of the KD value with respect to HRAS wild-type protein to the KD value with respect to KRAS. Put shortly:
(§1)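 Captured GDP-RAS (~100–300 RU) was exposed to increasing compound concentrations, 75 s per step, in running buffer with 10 µM GDP, 10 mM MgCl2 and 4% DMSO at pH 7.4.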

Test [2] addresses GDP-bound NRAS wild-type protein (Homo sapiens, UniProt P01111). Nature of the test: Binding to NRAS by surface plasmon resonance (SPR), KD and KD ratio to KRAS. As to conditions: ratio of the KD value with respect to GDP-bound NRAS wild-type protein to the KD value with respect to KRAS. The gist of the method: as §1
For orientation: SPR reads the build-up and loss of mass on a sensor chip optically.

For test [3], the target named is GDP-bound KRAS wild-type protein (Homo sapiens, UniProt P01116). Nature of the test: Binding to KRAS by surface plasmon resonance (SPR), dissociation constant KD. As to conditions: Single Cycle Kinetics, 1:1 binding model. Put shortly: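 Recombinant RAS proteins bearing a biotinylated Avi tag and loaded with GDP served as the captured ligand, recaptured fresh every cycle. Binding responses were referenced to an uncoated surface and a buffer-only blank cycle. Dissociation constants were obtained by 1:1 model fitting at 30°C.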
GDP-bound KRAS wild-type protein, sequence (P01116 1-188 isoform P01116-2): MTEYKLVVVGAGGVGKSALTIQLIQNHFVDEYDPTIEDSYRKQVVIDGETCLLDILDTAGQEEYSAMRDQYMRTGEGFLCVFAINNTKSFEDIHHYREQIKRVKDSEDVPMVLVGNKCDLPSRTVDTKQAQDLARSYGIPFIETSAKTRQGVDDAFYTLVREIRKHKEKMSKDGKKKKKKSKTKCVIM

HRAS wild-type protein, sequence (P01112 whole entry): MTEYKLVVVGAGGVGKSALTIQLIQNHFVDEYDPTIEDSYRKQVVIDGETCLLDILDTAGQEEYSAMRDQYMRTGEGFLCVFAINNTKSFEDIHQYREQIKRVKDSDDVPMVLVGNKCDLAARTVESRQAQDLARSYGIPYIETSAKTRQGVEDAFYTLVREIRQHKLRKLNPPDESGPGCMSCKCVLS
GDP-bound NRAS wild-type protein, sequence (P01111 whole entry): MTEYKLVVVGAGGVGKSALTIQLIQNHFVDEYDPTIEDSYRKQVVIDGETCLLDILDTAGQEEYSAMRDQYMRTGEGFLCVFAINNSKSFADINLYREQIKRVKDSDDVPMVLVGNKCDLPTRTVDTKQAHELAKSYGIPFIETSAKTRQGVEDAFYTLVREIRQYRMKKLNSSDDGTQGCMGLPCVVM

As to `C=CCN1CC(=O)N(C)[C@H]2C/C=C\CCN(C2=O)[C@@H](Cc2ccc(C)cc2)C(=O)N(C)CC(=O)N[C@@H](CCc2ccc(C(F)(F)F)c(OC)c2)C(=O)N2C[C@H](OCC)C[C@H]2C(=O)NC2(CC(C)(C)C2)C(=O)N(C)[C@@H](C2CCCC2)C(=O)N(C)[C@H](C(=O)N(C)C)CC(=O)N(C)[C@@H](CC(C)C)C(=O)N[C@@H]([C@@H](C)CC)C1=O` [PP2058], in test [1], half-maximal inhibition (IC50) required 3.7 nM. Besides, at HRAS wild-type protein, the “HRAS /KRAS” value was “A (a compound having 10 or more and less than 20 is denoted as A)”. Moreover, in test [2], the “NRAS /KRAS” value was “A (a compound having 10 or more and less than 20 is denoted as A)”. In test [3], this molecule came in with a Kd of 0.21 nM.
With `C#CC[C@H]1C(=O)N[C@@H]([C@@H](C)CC)C(=O)N(C)CC(=O)N(C)[C@H]2C/C=C\CCN(C2=O)[C@@H](Cc2ccc(C(F)(F)F)cc2)C(=O)N(C)CC(=O)N[C@@H](CCc2ccc(C(F)(F)F)c(OC)c2)C(=O)N2C[C@@H](C)C[C@H]2C(=O)NC2(CCC2)C(=O)N(C)[C@@H](C2CCCC2)C(=O)N(C)[C@H](C(=O)N(C)CCC)CC(=O)N1C` [PP2063], in test [1], the IC50 came to 13.6 nM. Further, on HRAS wild-type protein, the “HRAS /KRAS” value is “A (a compound having 10 or more and less than 20 is denoted as A)”. Further, in test [2], the “NRAS /KRAS” value is reported as “AA (a compound having 20 or more is denoted as AA)”. This molecule displayed a Kd in test [3] of 0.09 nM.
In turn, `CCC[C@H]1C(=O)N[C@@H]([C@@H](C)CC)C(=O)N(C)CC(=O)N(C)[C@H]2C/C=C\CCN(C2=O)[C@@H](Cc2ccc(C)cc2)C(=O)N(C)CC(=O)N[C@@H](CCc2cc(F)c(C(F)(F)F)c(F)c2)C(=O)N2C[C@H](OCC)C[C@H]2C(=O)NC2(CC(C)(C)C2)C(=O)N(C)[C@@H](C(CC)CC)C(=O)N(C)[C@H](C(=O)N(C)C)CC(=O)N1C` [PP2064] returned an IC50 in test [1] of 13.6 nM. At HRAS wild-type protein, the “HRAS /KRAS” value is “A (a compound having 10 or more and less than 20 is denoted as A)”. For the same molecule, the “NRAS /KRAS” value in test [2] was “A (a compound having 10 or more and less than 20 is denoted as A)”. Also, in test [3], the affinity, expressed as Kd, was 0.26 nM.
In test [1], `CC[C@H](C)[C@@H]1NC(=O)[C@H](C2CCC2)N(C)C(=O)C[C@@H](C(=O)N(C)CC)N(C)C(=O)[C@H](C2CCCC2)N(C)C(=O)C2(CCC2)NC(=O)[C@@H]2C[C@H](C)CN2C(=O)[C@H](CCc2cc(F)c(C(F)(F)F)c(F)c2)NC(=O)CN(C)C(=O)[C@H](Cc2ccc(C(F)(F)F)cc2)N2CC/C=C\C[C@@H](C2=O)N(C)C(=O)CN(C)C1=O` [PP2082] came in with an IC50 of 7.8 nM. In addition, on HRAS wild-type protein, the “HRAS /KRAS” value was “A (a compound having 10 or more and less than 20 is denoted as A)”. For the same molecule, the “NRAS /KRAS” value in test [2] is reported as “AA (a compound having 20 or more is denoted as AA)”. Moreover, the Kd in test [3] is 0.11 nM.
Molecule `C#CCN1CC(=O)N(C)[C@H]2C/C=C\CCN(C2=O)[C@@H](Cc2ccc(C)cc2)C(=O)N(C)CC(=O)N[C@@H](CCc2ccc(C(F)(F)F)c(OC)c2)C(=O)N2C[C@H](OCC)C[C@H]2C(=O)NC2(CC(C)(C)C2)C(=O)N(C)[C@@H](C2CCCC2)C(=O)N(C)[C@H](C(=O)N(C)C)CC(=O)N(C)[C@@H](CCC)C(=O)N[C@@H]([C@@H](C)CC)C1=O` [PP2099] came in with an IC50 in test [1] of 9.1 nM. Also, at HRAS wild-type protein, the “HRAS /KRAS” value was “A (a compound having 10 or more and less than 20 is denoted as A)”. For the same molecule, the “NRAS /KRAS” value in test [2] was “A (a compound having 10 or more and less than 20 is denoted as A)”. The Kd in test [3] came out at 0.14 nM.
With `CCC[C@H]1C(=O)N[C@@H]([C@@H](C)CC)C(=O)N(CCC)CC(=O)N(C)[C@H]2C/C=C\CCN(C2=O)[C@@H](Cc2ccc(C)cc2)C(=O)N(C)CC(=O)N[C@@H](CCc2cc(F)c(C(F)(F)F)c(F)c2)C(=O)N2C[C@H](OCC)C[C@H]2C(=O)NC2(CC(C)(C)C2)C(=O)N(C)[C@@H](C2CCCC2)C(=O)N(C)[C@H](C(=O)N(C)C)CC(=O)N1C` [PP2108], it took 17.6 nM to reach half-maximal inhibition in test [1] (IC50). In addition, the “HRAS /KRAS” value at HRAS wild-type protein was “A (a compound having 10 or more and less than 20 is denoted as A)”. In test [2], the “NRAS /KRAS” value is “A (a compound having 10 or more and less than 20 is denoted as A)”. Besides, in test [3], the Kd amounted to 0.34 nM.
